# Where two headings read alike, the source gives them in different places. Non-standard residues stand in square brackets, D forms with d. Residues, ends and D or L forms follow the SMILES beside them. *: point of attachment. boroGlu = O=C(O)CC[C@H](N*)B(O)O; Abu = CC[C@H](N)C(=O)O
# How the values were obtained:
# [1] = target: T1, His6-CylA-27-412 (Enterococcus faecalis, UniProt A0A2P6AWB8); assay: Analysis of CylA inhibition by LCMS (cleavage of mCylLL and mCylLS); type: biochemical; details: 1 µM inhibitor; enzyme 4 nM; substrate 10 µM; 30 min, room temperature
# T1 sequence (A0A2P6AWB8 27-412): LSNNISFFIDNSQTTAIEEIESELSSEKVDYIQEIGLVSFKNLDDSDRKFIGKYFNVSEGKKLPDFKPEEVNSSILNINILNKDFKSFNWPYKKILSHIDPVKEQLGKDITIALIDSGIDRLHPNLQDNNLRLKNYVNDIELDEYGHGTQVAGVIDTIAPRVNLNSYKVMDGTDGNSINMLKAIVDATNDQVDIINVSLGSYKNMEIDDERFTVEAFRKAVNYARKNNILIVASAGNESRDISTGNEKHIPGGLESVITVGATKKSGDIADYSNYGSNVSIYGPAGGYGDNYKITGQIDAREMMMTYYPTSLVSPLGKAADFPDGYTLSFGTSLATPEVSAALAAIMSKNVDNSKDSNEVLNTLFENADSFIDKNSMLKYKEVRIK
# Method: We expressed CylA in Escherichia coli with an N-terminal His6-tag and without the secretion signal that is present in WT CylA. […] (4 nM) gave partial conversion to the mature core peptide after 30 min at room temperature.
# A Peak highlighted in green is the LP and peak highlighted in orange is CylLL”. B Peak highlighted in blue is the LP and peak highlighted in violet is CylLS”. Longer incubation times result in near-complete cleavage of the substrates. Source data are provided as a Source Data file.
# His6-CylA-27-412 was added to PBS (pH = 7.4) to achieve a total enzyme concentration of 4 nM then 1 was added to a concentration 1 μM. […] Reactions were allowed to stand for 30 min before quenching through adjustment to 1% formic acid. Reactions were analyzed directly by LCMS using a Jupiter 5 µm C4 300 Å, 50 × 2 mm LC column. The following gradient was used: 98% H2O + 0.1% FA (solvent A)/2% MeCN + 0.1% FA (solvent B) for 2 min then 98:2 to 2:98 solvent A:solvent B over 10 min. Extracted ion chromatograms (EIC) for each species were merged into a single trace. […] CylA was also previously reported to prefer the modified peptides over the linear peptides.
# [2] = target: T1, His6-CylA-27-412; assay: Co-operative pore formation assay (pyranine liposomes) measuring CylA-catalyzed cytolysin maturation; type: biochemical
# Excerpt: Cytolysin causes hemolysis and lyses a variety of eukaryotic cells[36],[37]. Additionally, CylA aggregates and is thought to associate primarily with the membrane of the producing cell[52],[53]. To mimic the maturation of cytolysin in vitro, an enzyme assay was designed that linked toxin production to the lysis of fluorescently labeled liposomes. […] In this way, pyranine fluorescence was correlated to toxin activation allowing for the determination of EC50 values (Fig. 4B, C).
# Fig. 4 In vitro pore formation assay for determining inhibitor effectiveness. A A schematic of the assay showing how pore formation is used as an indicator of toxin maturation. […] Pore formation dissipates a pH gradient between the interior of the liposome and the surrounding buffer increasing pyranine fluorescence. […] The data points from two replicates are shown (n = 2). Source data are provided as a Source Data file.
# Pyranine encapsulated liposomes were prepared as described elsewhere. […] To a well in a black 96-well plate (200 µL) was added 90 µL high pH buffer (5 mM MES, 5 mM Tricine, 5 mM NaCl, pH 7.4) containing CylA (4 nM final concentration). After adding inhibitor, the mixture was incubated at room temperature for 10 min then freshly prepared (no more than 2 days old) pyranine encapsulated DOPC liposomes were added such that the total DOPC concentration was 80 µM. […] The resulting curves were max-min normalized yielding the fraction of permeabilized liposomes. […] This experiment was performed in duplicate or triplicate for each inhibitor at each concentration.
# Supplementary Figure 3. Measuring CylA-cat alyzed cytolysin maturation using a pyranine pore formation assay. Plots on the left side show the normalized pyranine emission intensity monitored […]
# was added 30 min later. Each trace w as collected using a differ ent total co ncentration of inhibitor as indicated in the l egend. Traces are from a single representative tri al. On the right side, the fraction of liposomes permeabilized after 30 min was plotted as a function of total inhibitor concentration. The data were fit to a dose-response function using Origin 7 and the fit curve is depicted by the red line. Errors bars represent the standard of deviation bet ween two replicates (n = 2). Source d ata are pro vided as a Source Data file. […]
# [3] = tested on: HeLa cells; type: cell-based
# Method: Cell culturing and maintenance was performed in Dulbecco’s Modified Eagle Medium (DMEM, Gibco) supplemented with 10% heat inactivated fetal bovine serum (FBS, Gibco). Cells were routinely checked for mycoplasm using mycoplasm specific primers. HeLa cells (ATCC) were seeded in 96 well plates (Nunc) using a seeding density of 5000 cells/well and allowed to adhere for 16 h at 37 °C, 5% CO2. […] Post-treatment, plates were incubated for 72 h at 37 °C, 5% CO2. Subsequently, the growth medium was removed, and the cells were washed once with pre-warmed phosphate buffered saline (PBS; pH = 7.2). Next, 50 µL of DMEM-FBS media containing 1 mg/mL of 3-(4,5-dimethylthiazol-2-yl)-2,5-diphenyltetrazolium bromide (MTT) was added to the cells and the cells were incubated in the dark at 37 °C, 5% CO2 for 4 h. During this time, live cells reduced yellow tetrazolium salts to purple formazan crystals through NAD(P)H-dependent oxidoreductase activity. After 4 h, the medium was removed carefully and the insoluble formazan crystals were solubilized by incubating with 100 µL of dimethyl sulfoxide (DMSO) in the dark for 1 h with intermittent swirling. Finally, absorbance was recorded at 575 nm (Supplementary Fig. 18). The percentage of cells that survived over the course of the assay was calculated using Eq. 1.1 %survival=100%−Absorbanceoftreatedwell−AvgAbsorbanceofnegativecontrolwells/AvgAbsorbanceofpositivecontrol−AvgAbsorbanceofnegativecontrol*100% […]
# Supplementary Figure 18.Cytotoxicity assay of boronic acid inhibitors 2 , 3, 5- 9 against HeLa […]
# µM or less as determined by an MTT-based assay. Puromycin was used as positive control, while deionized sterile w ater w as used as a n egative con trol. Source data are prov ided as a Source Dat a […]
compound,measurement,setting,value
CC(=O)NCC(=O)N[C@@H](CC(=O)O)C(=O)N[C@H](C(=O)N[C@@H](CCC(N)=O)C(=O)N[C@@H](C)C(=O)N[C@@H](CCC(=O)O)B(O)O)C(C)C [Compound 1] (Ac-GDVQA-boroGlu),His6-CylA-27-412-catalyzed cleavage of mCylLS and mCylLL,[1],completely blocked
CC[C@H](NC(=O)[C@H](CCC(N)=O)NC(=O)[C@@H](NC(=O)[C@H](CC(=O)O)NC(=O)CNC(C)=O)C(C)C)C(=O)N[C@@H](CCC(=O)O)B(O)O [Compound 6] (Ac-GDVQ[Abu]-boroGlu),EC50,[2],70 ± 11 nM
same,increase in EC50 relative to 1,[2]; pore formation assay,~ 2 fold
CC(=O)N[C@@H](CO)C(=O)N[C@@H](CC(=O)O)C(=O)N[C@H](C(=O)N[C@@H](CCC(N)=O)C(=O)N[C@@H](C)C(=O)N[C@@H](CCC(=O)O)B(O)O)C(C)C [Compound 8] (Ac-SDVQA-boroGlu),EC50,[2],40 ± 3 nM
COc1ccc(C[C@H](N)C(=O)N[C@H]2[C@@H](O)[C@H](n3cnc4c(N(C)C)ncnc43)O[C@@H]2CO)cc1 [puromycin],% survival,[3]; additive concentration 1.6 (unit not given),5.522%
same,% survival,[3]; additive concentration 3.1 (unit not given),4.2%
same,% survival,[3]; additive concentration 6.3 (unit not given),4.093%
same,% survival,[3]; additive concentration 13 (unit not given),3.889%
same,% survival,[3]; additive concentration 25 (unit not given),3.867%
same,% survival,[3]; additive concentration 50 (unit not given),3.889%
same,% survival,[3]; additive concentration 100 (unit not given),3.867%

# — publication PMC12304293, “Combatting virulent gut bacteria by inhibiting the biosynthesis of a two-component lanthipeptide toxin” (Nature Communications, 2025)
